# In publication PMC8880098, “Synthesis, Antibacterial Evaluation, and Computational Studies of a Diverse Set of Linezolid Conjugates” (Pharmaceuticals, 2022):
# Read-outs that look alike come from different tables or passages of the source.
# Legend:
# [1] = tested on: Escherichia coli ATCC 47076; test: Antibacterial MIC, microdilution susceptibility test (CLSI); assay type: cell-based
# Text: (§1) The synthesized linezolid conjugates (3a–k, 5a–f, 7a–c, 9a–c, 11a–f, 13, and 15) were subjected for antimicrobial properties determination against Gram-positive (Staphylococcus aureus ATCC 6538, Bacillus subtilis ATCC 6633) and Gram-negative (Pseudomonas aeruginosa ATCC 15692, Escherichia coli ATCC 47076) bacteria by the standard technique.
# (§2) Antibacterial properties of the synthesized compounds (3a–k, 5a–f, 7a–c, 9a–c, 11a–f, 13 and 15) were screened against Gram-positive (Staphylococcus aureus ATCC 6538, Bacillus subtilis ATCC 6633) and Gram-negative (Pseudomonas aeruginosa ATCC 15,692 and Escherichia coli ATCC 47076) bacteria utilizing the standard technique. Linezolid was used as a standard reference/drug in the current study. The tested bacterial strains were obtained from MERCIN Center, Faculty of Agriculture, Ain Shams University, Cairo, Egypt.
# (§3) To determine the antibacterial activity, stock solutions of the tested compounds and standard reference were prepared with up to 100% DMSO and stored at […]. If necessary, the solutions were heated to 40–60 °C before testing to facilitate complete dissolution. Double distilled water was used in all dilutions prepared. […] A microdilution susceptibility test was used for MIC determination (Mueller–Hinton broth in 96-well plates) according to the CLSI (the Clinical and Laboratory Standards Institute, Malvern, PA, USA). The bacterial inoculum was adjusted to approximately 2.5–3 × 10^4 cells/mL in Mueller–Hinton broth and incubated in a ratio of 1:1 with the test derivatives in polystyrene 96-well flat-bottom microplates. Positive growth control (without test derivatives) and negative control (without bacteria) were included. The microplates were placed in an incubator set to 37 °C for 24 h. Absorbance was measured at 620 nm at the end of the incubation period. The cut-off level for follow-up studies was defined as a minimum of 90% inhibition of growth compared to the untreated sample. Experiments were conducted once in triplicate. For selected compounds, minimum inhibitory concentration (MIC) values were determined by dose–response experiments. Experiments were performed at least twice, in triplicate per concentration tested.
# [2] = tested on: Pseudomonas aeruginosa ATCC 15692; test: as above; assay type: cell-based
# Text: as §1, §2, §3
# [3] = tested on: Bacillus subtilis ATCC 6633; test: as above; assay type: cell-based; settings: Bacillus subtilis
# Text: as §1, §2, §3
# [4] = tested on: Staphylococcus aureus ATCC 6538; test: as above; assay type: cell-based; settings: Staphylococcus aureus
# Text: as §1, §2, §3
# [5] = tested on: Bacillus subtilis ATCC 6633; test: microbe, parasite or virus in culture; design: species or system bacteria; Broth microdilution MIC in Mueller-Hinton broth, absorbance at 620 nm; settings: ATCC6633, 24 h, read-out: Observed MIC, uM (B. subtilis)
# Text: as §3, with “Antibacterial properties of the synthesized compounds (3a–k, 5a–f, 7a–c, 9a–c, 11a–f, 13 and 15) were screened against Gram-positive (Staphylococcus aureus ATCC 6538, Bacillus subtilis ATCC 6633) and Gram-negative (Pseudomonas aeruginosa ATCC 15,692 and Escherichia coli ATCC 47076) bacteria utilizing the standard technique. Linezolid was used as a standard reference/drug in the current study. The tested bacterial strains were obtained from MERCIN Center, Faculty of Agriculture, Ain Shams University, Cairo, Egypt. To” for “To”
# [6] = tested on: Staphylococcus aureus ATCC 6538; test: microbe, parasite or virus in culture; design: species or system bacteria; Broth microdilution MIC in Mueller-Hinton broth, absorbance at 620 nm; settings: ATCC6538, 24 h, read-out: Observed MIC, uM (S. aureus)
# Text: as §3, with “Antibacterial properties of the synthesized compounds (3a–k, 5a–f, 7a–c, 9a–c, 11a–f, 13 and 15) were screened against Gram-positive (Staphylococcus aureus ATCC 6538, Bacillus subtilis ATCC 6633) and Gram-negative (Pseudomonas aeruginosa ATCC 15,692 and Escherichia coli ATCC 47076) bacteria utilizing the standard technique. Linezolid was used as a standard reference/drug in the current study. The tested bacterial strains were obtained from MERCIN Center, Faculty of Agriculture, Ain Shams University, Cairo, Egypt. To” for “To”
# [7] = ATCC47076, Mueller–Hinton broth, 37 °C, 24 h, read-out: MIC, μg/mL ± SE, E. Coli (ATCC 47076)
# [8] = ATCC47076, value in parentheses, read-out: MIC (μmol), E. Coli (ATCC 47076) (converted)
# [9] = ATCC15692, Mueller–Hinton broth, 37 °C, 24 h, read-out: MIC, μg/mL ± SE, P. Aeruginosa (ATCC 15692)
# [10] = ATCC15692, value in parentheses, read-out: MIC (μmol), P. Aeruginosa (ATCC 15692) (converted)
# [11] = ATCC6633, 24 h, Mueller–Hinton broth, 37 °C, 24 h, read-out: MIC, μg/mL ± SE, B. Subtilis (ATCC 6633)
# [12] = ATCC6538, 24 h, Mueller–Hinton broth, 37 °C, 24 h, read-out: MIC, μg/mL ± SE, S. Aureus (ATCC 6538)
Compound,"MIC [1, 7] [µg/mL]","MIC [1, 8] [µM]","MIC [2, 9] [µg/mL]","MIC [2, 10] [µM]","MIC [3, 11] [µg/mL]","MIC [4, 12] [µg/mL]",melting point [°C],MIC [5] [µM],MIC [6] [µM],"MIC ([3]; ATCC6633, as quoted in running text, read-out: MIC against B. subtilis) [µM]","MIC ([4]; ATCC6538, as quoted in running text, read-out: MIC against S. aureus) [µM]"
"CC(C)(C)OC(=O)NCC(=O)NC[C@H]1CN(c2ccc(N3CCOCC3)c(F)c2)C(=O)O1 [Compound 3f, Tert-butyl (S)-(2-(((3-(3-fluoro-4-morpholinophenyl)-2-oxooxazolidin-5-yl)methyl)amino)-2-oxoethyl)carbamate]",32 ± 2.8,70.7,32 ± 1.6,70.7,8 ± 0.4,32 ± 1.4,54 to 56,17.7,70.7,,
"C[C@H](NC(=O)OC(C)(C)C)C(=O)NC[C@H]1CN(c2ccc(N3CCOCC3)c(F)c2)C(=O)O1 [Compound 3g, Tert-butyl ((S)-1-((((S)-3-(3-fluoro-4-morpholinophenyl)-2-oxooxazolidin-5-yl)methyl)amino)-1-oxopropan-2-yl)carbamate]",32 ± 2.7,68.6,32 ± 1.2,68.6,32 ± 2.4,32 ± 1.5,71 to 72,68.6,68.6,,
"CC(C)(C)OC(=O)N[C@@H](Cc1ccccc1)C(=O)NC[C@H]1CN(c2ccc(N3CCOCC3)c(F)c2)C(=O)O1 [Compound 3j, Tert-butyl ((S)-1-((((S)-3-(3-fluoro-4-morpholinophenyl)-2-oxooxazolidin-5-yl)methyl)amino)-1-oxo-3-phenylpropan-2-yl)carbamate]",32 ± 0.9,59,64 ± 1.8,118,32 ± 1.3,64 ± 2.5,69 to 71,59,118,,
"O=C(NC[C@H]1CN(c2ccc(N3CCOCC3)c(F)c2)C(=O)O1)c1ccccc1 [Compound 5a, (S)-N-((3-(3-Fluoro-4-morpholinophenyl)-2-oxooxazolidin-5-yl)methyl)benzamide]",32 ± 1.6,80.1,32 ± 0.8,80.1,1 ± 0.1,4 ± 0.2,174 to 176,2.5,10,2.33 to 2.5,9.34 to 10
"O=C(NC[C@H]1CN(c2ccc(N3CCOCC3)c(F)c2)C(=O)O1)c1cccc([N+](=O)[O-])c1Cl [Compound 5f, (S)-2-Chloro-N-((3-(3-fluoro-4-morpholinophenyl)-2-oxooxazolidin-5-yl)methy-l)-3-nitrobenzamide]",32 ± 0.6,66.8,32 ± 1.4,66.8,4 ± 0.3,8 ± 0.2,200 to 202,8.35,16.7,,
"O=C(NC[C@H]1CN(c2ccc(N3CCOCC3)c(F)c2)C(=O)O1)c1cccnc1 [Compound 7b, (S)-N-((3-(3-Fluoro-4-morpholinophenyl)-2-oxooxazolidin-5-yl)methyl)nicotinamide]",32 ± 1,79.9,32 ± 1.2,79.9,2 ± 0.1,8 ± 0.2,182 to 184,5,20,,
"O=C(NC[C@H]1CN(c2ccc(N3CCOCC3)c(F)c2)C(=O)O1)c1cnccn1 [Compound 7c, (S)-N-((3-(3-Fluoro-4-morpholinophenyl)-2-oxooxazolidin-5-yl)methyl)pyrazine-2-carboxamide]",32 ± 0.7,79.7,32 ± 1.1,79.7,2 ± 0.1,8 ± 0.1,190 to 192,4.98,19.9,,
"CC(C)C[C@H](NC(=O)c1cnccn1)C(=O)NC[C@H]1CN(c2ccc(N3CCOCC3)c(F)c2)C(=O)O1 [Compound 9a, N-((S)-1-((((S)-3-(3-Fluoro-4-morpholinophenyl)-2-oxooxazolidin-5-yl)methyl)amino) -4-methyl-1-oxopentan-2-yl)pyrazine-2-carboxamide]",32 ± 1.6,62.2,32 ± 1.3,62.2,32 ± 2,32 ± 0.4,90 to 92,62.2,62.2,,
"CC(C)[C@H](NC(=O)c1cnccn1)C(=O)NC[C@H]1CN(c2ccc(N3CCOCC3)c(F)c2)C(=O)O1 [Compound 9b, N-((S)-1-((((S)-3-(3-Fluoro-4-morpholinophenyl)-2-oxooxazolidin-5-yl)methyl)amino) -3-methyl-1-oxobutan-2-yl)pyrazine-2-carboxamide]",32 ± 3.4,63.9,32 ± 2.5,63.9,32 ± 1.3,32 ± 1.7,94 to 96,63.9,63.9,,
